From ChEMBL document CHEMBL1136802, “Receptor-guided alignment-based comparative 3D-QSAR studies of benzylidene malonitrile tyrphostins as EGFR and HER-2 kinase inhibitors” (J Med Chem, 2003)

What was measured:
[1] = target: T1, Epidermal growth factor receptor (Homo sapiens, UniProt P00533); experiment: Inhibitory activity against epidermal growth factor receptor (EGFR)
[2] = target: T2, Receptor tyrosine-protein kinase erbB-2 (Homo sapiens, UniProt P04626); experiment: Inhibitory activity tested against protein kinase HER-2
[3] = target: T2, Receptor tyrosine-protein kinase erbB-2; experiment: Inhibition of HER-2 ErbB2 receptor
[4] = target: T1, Epidermal growth factor receptor; experiment: Inhibition of epidermal growth factor receptor (EGFR)

T1 sequence (P00533 whole entry): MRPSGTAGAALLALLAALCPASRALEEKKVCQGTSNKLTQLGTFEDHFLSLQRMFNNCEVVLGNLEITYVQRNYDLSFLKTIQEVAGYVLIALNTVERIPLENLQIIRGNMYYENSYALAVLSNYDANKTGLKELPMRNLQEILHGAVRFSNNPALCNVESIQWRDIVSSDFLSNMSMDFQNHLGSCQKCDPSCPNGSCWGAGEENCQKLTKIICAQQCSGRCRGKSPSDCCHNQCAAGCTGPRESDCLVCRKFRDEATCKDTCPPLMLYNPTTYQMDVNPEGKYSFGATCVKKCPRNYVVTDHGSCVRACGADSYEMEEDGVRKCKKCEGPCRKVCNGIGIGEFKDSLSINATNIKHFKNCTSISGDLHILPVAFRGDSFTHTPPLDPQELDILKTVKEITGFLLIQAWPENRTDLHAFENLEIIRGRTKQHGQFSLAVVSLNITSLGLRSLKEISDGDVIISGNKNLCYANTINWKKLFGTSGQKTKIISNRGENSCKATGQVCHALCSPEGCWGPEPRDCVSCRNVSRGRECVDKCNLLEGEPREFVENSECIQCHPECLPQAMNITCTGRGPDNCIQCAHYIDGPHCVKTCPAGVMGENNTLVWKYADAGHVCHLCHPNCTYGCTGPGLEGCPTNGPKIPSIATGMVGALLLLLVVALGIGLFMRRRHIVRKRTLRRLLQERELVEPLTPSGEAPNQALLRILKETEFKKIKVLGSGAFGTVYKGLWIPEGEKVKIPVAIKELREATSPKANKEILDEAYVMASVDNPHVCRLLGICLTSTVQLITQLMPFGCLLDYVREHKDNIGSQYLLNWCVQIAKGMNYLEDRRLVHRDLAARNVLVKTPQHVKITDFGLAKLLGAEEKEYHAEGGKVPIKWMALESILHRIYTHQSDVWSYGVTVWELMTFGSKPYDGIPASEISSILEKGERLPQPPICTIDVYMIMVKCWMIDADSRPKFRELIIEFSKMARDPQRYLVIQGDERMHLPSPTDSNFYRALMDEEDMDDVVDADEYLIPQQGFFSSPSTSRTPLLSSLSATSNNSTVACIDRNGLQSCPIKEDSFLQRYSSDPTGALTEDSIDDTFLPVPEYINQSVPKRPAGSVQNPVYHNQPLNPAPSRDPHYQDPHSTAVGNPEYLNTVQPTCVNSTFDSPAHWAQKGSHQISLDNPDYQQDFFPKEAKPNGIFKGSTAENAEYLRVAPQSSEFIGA
T2 sequence (P04626 whole entry): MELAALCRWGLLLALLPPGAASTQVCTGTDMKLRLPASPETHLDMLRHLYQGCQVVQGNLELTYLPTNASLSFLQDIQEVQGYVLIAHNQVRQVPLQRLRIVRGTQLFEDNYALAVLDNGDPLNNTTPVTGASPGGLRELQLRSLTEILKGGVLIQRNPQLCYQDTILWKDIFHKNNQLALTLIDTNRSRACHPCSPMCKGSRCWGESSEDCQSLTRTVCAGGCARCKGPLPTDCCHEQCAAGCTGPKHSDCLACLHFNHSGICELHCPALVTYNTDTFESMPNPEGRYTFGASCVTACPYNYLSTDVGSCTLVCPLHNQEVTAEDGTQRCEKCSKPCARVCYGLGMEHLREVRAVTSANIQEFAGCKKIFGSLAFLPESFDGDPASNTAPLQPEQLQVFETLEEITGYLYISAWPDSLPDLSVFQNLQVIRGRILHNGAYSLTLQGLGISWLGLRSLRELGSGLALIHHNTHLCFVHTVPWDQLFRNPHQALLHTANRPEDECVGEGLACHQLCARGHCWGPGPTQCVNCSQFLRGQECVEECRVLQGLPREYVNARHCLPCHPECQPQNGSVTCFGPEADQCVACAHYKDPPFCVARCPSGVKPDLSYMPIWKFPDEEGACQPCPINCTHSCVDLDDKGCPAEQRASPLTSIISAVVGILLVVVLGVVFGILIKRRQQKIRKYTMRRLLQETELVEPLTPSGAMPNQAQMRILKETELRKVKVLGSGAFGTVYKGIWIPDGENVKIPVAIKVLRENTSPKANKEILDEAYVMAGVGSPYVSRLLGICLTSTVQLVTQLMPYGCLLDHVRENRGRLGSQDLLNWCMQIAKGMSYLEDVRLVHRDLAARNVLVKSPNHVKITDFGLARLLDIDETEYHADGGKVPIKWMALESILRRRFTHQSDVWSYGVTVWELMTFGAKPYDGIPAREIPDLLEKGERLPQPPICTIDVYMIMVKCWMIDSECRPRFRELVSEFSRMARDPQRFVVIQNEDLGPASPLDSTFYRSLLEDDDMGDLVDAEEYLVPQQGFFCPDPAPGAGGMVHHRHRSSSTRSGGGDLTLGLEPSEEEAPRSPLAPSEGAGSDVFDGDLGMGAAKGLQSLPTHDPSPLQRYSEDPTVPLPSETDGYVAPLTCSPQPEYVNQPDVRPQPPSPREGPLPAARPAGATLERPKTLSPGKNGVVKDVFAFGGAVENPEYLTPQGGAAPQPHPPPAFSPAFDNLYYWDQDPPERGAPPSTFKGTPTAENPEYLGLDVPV

Structure (SMILES): COc1cc(/C=C(\C#N)C(N)=O)cc(CSc2nc3cc(Cl)ccc3s2)c1O
- IC50 [1]: 83.2 µM
- IC50 [2]: 15.1 µM

Structure (SMILES): COc1cc(/C=C(\C#N)C(N)=O)cc(CSc2ccccc2NC(C)=O)c1O
- IC50 [2]: 3.31 µM

Structure (SMILES): COc1cc(/C=C(\C#N)C(N)=O)cc(SCCCC(=O)O)c1O
- IC50 [1]: 47.9 µM

Structure (SMILES): COc1cc(/C=C(\C#N)C(N)=O)cc(SCCC(=O)O)c1O
- IC50 [3]: 91.2 µM

Structure (SMILES): COc1cc(C=C(C#N)C#N)cc(SCC(=O)O)c1O
- IC50 [1]: 53.7 µM
- IC50 [2]: 4.57 µM

Structure (SMILES): Cc1cc(C=C(C#N)C#N)cc(O)c1O
- IC50 [2]: 58.9 µM

Structure (SMILES): COc1cc(/C=C(\C#N)C(N)=O)cc(CSc2ccccc2)c1O
- IC50 [2]: 0.129 µM

Structure (SMILES): COc1cc(/C=C(\C#N)C(N)=O)cc(CSc2nc3ccccc3o2)c1O
- IC50 [2]: 1.51 µM

Structure (SMILES): COc1cc(C=C(C#N)C#N)cc(CSc2ccccc2C(=O)O)c1O
- IC50 [2]: 10 µM

Structure (SMILES): COc1cc(/C=C(\C#N)C(N)=O)cc(CSc2ccccn2)c1O
- IC50 [2]: 0.708 µM

Structure (SMILES): COc1cc(/C=C(\C#N)C(N)=O)cc(CSc2ccccc2C(=O)O)c1O
- IC50 [2]: 0.447 µM

Structure (SMILES): COc1cc(C=C(C#N)C#N)cc(C)c1O
- IC50 [2]: 112 µM

Structure (SMILES): COc1cc(C=C(C#N)C#N)cc(CSc2ccccc2)c1O
- IC50 [2]: 2.51 µM

Structure (SMILES): CC(C)(C)Oc1cc(/C=C(\C#N)C(=N)S)cc(C(C)(C)C)c1O
- IC50 [1]: 501 µM
- IC50 [2]: 1 µM

Structure (SMILES): COc1cc(/C=C(/C#N)C(N)=O)cc(CSCc2ccc(Cl)cc2)c1O
- IC50 [1]: 15.8 µM
- IC50 [2]: 2 µM

Structure (SMILES): Cc1cc(C)c(NC(=O)/C(C#N)=C/c2ccc(O)c(O)c2)c(C)c1
- IC50 [1]: 19.1 µM
- IC50 [2]: 20.9 µM

Structure (SMILES): COc1cc(/C=C(\C#N)C(N)=O)cc(CSc2cccc3ccccc23)c1O
- IC50 [1]: 1.7 µM
- IC50 [2]: 4.57 µM

Structure (SMILES): N#C/C(=C\c1ccc(O)c(O)c1)C(=O)NCc1ccc(O)cc1
- IC50 [1]: 3.02 µM
- IC50 [2]: 2.88 µM

Structure (SMILES): N#C/C(=C\c1ccc(O)c(O)c1)C(=O)NCCc1ccccc1
- IC50 [1]: 0.617 µM

Structure (SMILES): COc1cc(/C=C(\C#N)C(N)=O)cc(CSCc2ccccc2Cl)c1O
- IC50 [2]: 0.251 µM

Structure (SMILES): COc1cc(/C=C(\C#N)C(N)=O)cc(CSCc2ccccc2)c1O
- IC50 [2]: 10 µM

Structure (SMILES): COc1cc(/C=C(\C#N)C(N)=O)cc(CSc2nc3ccccc3[nH]2)c1O
- IC50 [2]: 6.17 µM

Structure (SMILES): COc1cc(/C=C(\C#N)C(N)=O)cc(CSc2ccc(C)cc2)c1O
- IC50 [2]: 1.66 µM

Structure (SMILES): COc1cc(C=C(C#N)C#N)cc(CS(=O)(=O)c2ccc(C)cc2)c1O
- IC50 [2]: 17.4 µM

Structure (SMILES): CCOc1ccc2sc(SCc3cc(/C=C(\C#N)C(N)=O)cc(OC)c3O)nc2c1
- IC50 [4]: 166 µM

Structure (SMILES): N#C/C(=C\c1cc(O)c(O)c(CSCc2ccccc2)c1)C(N)=O
- IC50 [2]: 1.02 µM

Structure (SMILES): N#C/C(=C\c1ccc(O)c(O)c1)C(=O)NCCCCc1ccccc1
- IC50 [2]: 501 µM

Structure (SMILES): N#C/C(=C\c1ccc(O)c(O)c1)C(=O)c1ccc(F)cc1
- IC50 [2]: 12.9 µM

Structure (SMILES): Cc1cc(C)c(C(=O)/C(C#N)=C/c2ccc(O)c(O)c2)c(C)c1
- IC50 [1]: 19.1 µM

Structure (SMILES): CCOC(=O)C(Cc1ccccc1)NC(=O)/C(C#N)=C/c1ccc(O)c(O)c1 (centres undefined)
- IC50 [2]: 331 µM

Structure (SMILES): N#C/C(=C\c1ccc(O)c(O)c1)C(=O)c1ccc(O)c(O)c1
- IC50 [2]: 17 µM

Structure (SMILES): COc1ccc(NC(=O)/C(C#N)=C/c2ccc(O)c(O)c2)c(OC)c1
- IC50 [2]: 166 µM
